The source of these data is US11384067B2, “Pyrazole n-linked carbamoyl cyclohexyl acids as LPA antagonists” (BRISTOL-MYERS SQUIBB COMPANY, priority 2017, dated 2022).

The structures appear in SMILES notation. pIC50: −log10 of the molar value.

T1 sequence (Q92633 whole entry): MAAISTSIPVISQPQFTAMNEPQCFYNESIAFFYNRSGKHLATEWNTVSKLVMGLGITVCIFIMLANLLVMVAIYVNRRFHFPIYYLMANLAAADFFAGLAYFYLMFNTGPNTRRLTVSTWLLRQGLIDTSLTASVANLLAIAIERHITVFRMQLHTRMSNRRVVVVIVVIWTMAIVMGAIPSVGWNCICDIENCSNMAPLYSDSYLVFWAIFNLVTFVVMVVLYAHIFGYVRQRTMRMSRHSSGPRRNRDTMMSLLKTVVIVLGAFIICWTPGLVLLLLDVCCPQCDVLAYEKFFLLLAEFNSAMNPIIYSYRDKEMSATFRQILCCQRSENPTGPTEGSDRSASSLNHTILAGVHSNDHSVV

One test has as its target T1, human LPA1 (Homo sapiens, UniProt Q92633).
T1 construct: expressed in transfected cells; host or cells: Chinese hamster ovary (CHO) cells
The test can be described thus: LPA1 functional antagonist assay (LPA-induced calcium flux). It is filed as cell-based. The following applies: CHO cells overexpressing human LPA1, 10 nM LPA, read-out: hLPA1 IC50. As to the method: The effectiveness of compounds of the present invention as LPA1 inhibitors can be determined in an LPA1 functional antagonist assay as follows:
The cells were then equilibrated to room temperature for 30 minutes before the assay. […] IC50 values were determined by fitting data to a 4-parameter logistic equation (GraphPad Prism, San Diego Calif.).
What is called pIC50 is the negative decadic logarithm of the IC50, by convention in mol/L. Turning to `Cc1cccc(COC(=O)NCc2c(-c3ccc(O[C@H]4CCC[C@H](C(=O)O)C4)cn3)cnn2C)c1` [Example 7, (1S,3S)-3-((6-(1-methyl-5-(((((3-methylbenzyl)oxy)carbonyl)amino)methyl)-1H-pyrazol-4-yl)pyridin-3-yl)oxy)cyclohexane-1-carboxylic acid], the pIC50 was 6.55.

As to `CCCCOC(=O)N(C)Cc1c(-c2ccc(O[C@H]3CCC[C@H](C(=O)O)C3)c(C)n2)cnn1C` [Example 2, (1S,3S)-3-((6-(5-(((Butoxycarbonyl)(methyl)amino)methyl)-1-methyl-1H-pyrazol-4-yl)-2-methylpyridin-3-yl)oxy)cyclohexanecarboxylic Acid], the pIC50 was 7.31.

On to `Cc1nc(-c2cnn(C)c2NC(=O)O[C@H](C)c2ccccc2)ncc1O[C@H]1CCC[C@H](C(=O)O)C1` [Example 40, (1S,3S)-3-((4-methyl-2-(1-methyl-5-((((R)-1-phenylethoxy)carbonyl)amino)-1H-pyrazol-4-yl)pyrimidin-5-yl)oxy)cyclohexane-1-carboxylic acid], for which the pIC50 is 6.98.

In the case of `Cc1nc(-c2cnn(C)c2NC(=O)OCC(C)C)ncc1O[C@H]1CCC[C@H](C(=O)O)C1` [Example 43], the pIC50 was 6.25.

Regarding `Cc1nc(-c2cnn(C)c2NC(=O)O[C@H](C)C2CC2)ncc1O[C@H]1CCC[C@H](C(=O)O)C1` [Example 41, (1S,3S)-3-((2-(5-((((R)-1-cyclopropyl-ethoxy)carbonyl)amino)-1-methyl-1H-pyrazol-4-yl)-4-methylpyrimidin-5-yl)oxy)cyclohexane-1-carboxylic acid], the pIC50 was 7.10.

`Cc1nc(-c2cnn(C)c2CNC(=O)OCC(C)C)cnc1O[C@H]1CCC[C@H](C(=O)O)C1` [Example 29, (1S,3S)-3-((5-(5-(((isobutoxy-carbonyl)amino)methyl)-1-methyl-1H-pyrazol-4-yl)-3-methylpyrazin-2-yl)oxy)cyclohexane-1-carboxylic acid]: the pIC50 is 5.92.

Consider `Cc1nc(-c2cnn(C)c2CNC(=O)OCC2CCC2)ccc1O[C@H]1CCC[C@H](C(=O)O)C1` [Example 35, (1S,3S)-3-((6-(5-((((cyclobutyl-methoxy)carbonyl)amino)methyl)-1-methyl-1H-pyrazol-4-yl)-2-methyl-pyridin-3-yl)oxy)cyclohexane-carboxylic acid], for which the pIC50 was 8.00.

Regarding `CC(C)COC(=O)NCc1c(-c2ccc(O[C@H]3CCC[C@H](C(=O)O)C3)cn2)cnn1C` [Example 17, (1S,3S)-3-((6-(5-(((isobutoxy-carbonyl)amino)methyl)-1-methyl-1H-pyrazol-4-yl)pyridin-3-yl)oxy)cyclohexane-1-carboxylic acid], the pIC50 is 5.79.

For the compound `CCCCOC(=O)NCc1c(-c2ccc(O[C@H]3CCC[C@H](C(=O)O)C3)c(C)n2)cnn1C` [Example 1, (1S,3S)-3-((6-(5-(((Butoxycarbonyl)amino)methyl)-1-methyl-1H-pyrazol-4-yl)-2-methylpyridin-3-yl)oxy)cyclohexanecarboxylic Acid], the pIC50 was 7.55.

For the compound `CCCCOC(=O)NCc1c(-c2ccc(O[C@H]3CCC[C@H](C(=O)O)C3)cn2)cnn1C` [Example 18, (1S,3S)-3-((6-(5-(((butoxycarbonyl)amino)methyl)-1-methyl-1H-pyrazol-4-yl)pyridin-3-yl)oxy)cyclohexane-1-carboxylic acid], the pIC50 was 6.49.

For `Cc1nc(-c2cnn(C)c2CNC(=O)OCC(C)C)ncc1O[C@H]1CCC[C@H](C(=O)O)C1` [Example 38, (1S,3S)-3-((2-(5-(((isobutoxy-carbonyl)amino)methyl)-1-methyl-1H-pyrazol-4-yl)-4-methylpyrimidin-5-yl)oxy)cyclohexane-1-carboxylic acid], the pIC50 was 6.66.

Turning to `CC[C@H](C)COC(=O)NCc1c(-c2ncc(O[C@H]3CCC[C@H](C(=O)O)C3)c(C)n2)cnn1C` [Example 36, (1S,3S)-3-((4-methyl-2-(I-methyl-5-(((((S)-2-methylbutoxy)carbonyl)amino)methyl)-1H-pyrazol-4-yl)pyrimidin-5-yl)oxy)cyclohexane-1-carboxylic Acid], the pIC50 is 7.51.

Regarding `Cc1nc(-c2cnn(C)c2NC(=O)OC(C)(C)C)ncc1O[C@H]1CCC[C@H](C(=O)O)C1` [Example 39, (1S,3S)-3-((2-(5-((tert-butoxycarbonyl)amino)-1-methyl-1H-pyrazol-4-yl)-4-methylpyrimidin-5-yl)oxy)cyclohexane-1-carboxylic Acid], the negative-log IC50 (pIC50) was 5.82.

For the compound `Cc1cccc(COC(=O)NCc2c(-c3ccc(O[C@H]4CCC[C@H](C(=O)O)C4)c(C)n3)cnn2C)c1` [Example 15, (1S,3S)-3-((2-methyl-6-(1-methyl-5-(((((3-methylbenzyl)oxy)carbonyl)amino)methyl)-1H-pyrazol-4-yl)pyridin-3-yl)oxy)cyclohexane-1-carboxylic acid], the negative-log IC50 (pIC50) is 8.70.

For the compound `Cc1nc(-c2cnn(C)c2CNC(=O)OCc2ccccc2)cnc1O[C@H]1CCC[C@H](C(=O)O)C1` [Example 31, (1S,3S)-3-((5-(5-((((benzyloxy)carbonyl)amino)methyl)-1-methyl-1H-pyrazol-4-yl)-3-methylpyrazin-2-yl)oxy)cyclohexane-1-carboxylic acid], the pIC50 was 7.54.

Take `Cn1ncc(-c2ccc(O[C@H]3CCC[C@H](C(=O)O)C3)cn2)c1CNC(=O)OCc1cc(F)ccc1F` [Example 9, (1S,3S)-3-((6-(5-(((((2,5-difluoro-benzyl)oxy)carbonyl)amino)methyl)-1-methyl-1H-pyrazol-4-yl)pyridin-3-yl)oxy)cyclohexane-1-carboxylic acid]: the pIC50 was 7.15.

Regarding `Cn1ncc(-c2ccc(O[C@H]3CCC[C@H](C(=O)O)C3)cn2)c1CNC(=O)OCc1cc(F)cc(F)c1` [Example 8, (1S,3S)-3-((6-(5-(((((3,5-difluoro-benzyl)oxy)carbonyl)amino)methyl)-1-methyl-1H-pyrazol-4-yl)pyridin-3-yl)oxy)cyclohexane-1-carboxylic acid], the pIC50 was 6.95.

With `CCCCOC(=O)N(C)Cc1c(-c2ccc(O[C@H]3CCC[C@H](C(=O)O)C3)cn2)cnn1C` [Example 23, (1S,3S)-3-((6-(5-(((butoxycarbonyl)(methyl)amino)methyl)-1-methyl-1H-pyrazol-4-yl)pyridin-3-yl)oxy)cyclohexane-1-carboxylic acid], the pIC50 is 6.61.

Regarding `Cc1nc(-c2cnn(C)c2CNC(=O)OCc2ccccc2)ccc1O[C@H]1CCC[C@H](C(=O)O)C1` [Example 33, (1S,3S)-3-((6-(5-((((benzyloxy)carbonyl)amino)methyl)-1-methyl-1H-pyrazol-4-yl)-2-methylpyridin-3-yl)oxy)cyclohexane-1-carboxylic acid], the pIC50 was 7.89.

Turning to `Cn1ncc(-c2ccc(O[C@H]3CCC[C@H](C(=O)O)C3)cn2)c1CNC(=O)OCC(C)(C)C` [Example 14, (1S,3S)-3-((6-(1-methyl-5-((((neo-pentyloxy)carbonyl)amino)methyl)-1H-pyrazol-4-yl)pyridin-3-yl)oxy)cyclohexane-carboxylic acid], the pIC50 is 6.68.

With `Cn1ncc(-c2ccc(O[C@H]3CCC[C@H](C(=O)O)C3)cn2)c1CNC(=O)OCCc1ccccc1` [Example 22, (1S,3S)-3-((6-(1-methyl-5-(((phen-ethoxycarbonyl)amino)methyl)-1H-pyrazol-4-yl)pyridin-3-yl)oxy)cyclohexane-1-carboxylic acid], the pIC50 was 6.45.

In another test the test system is IPF patients.
Assay: not given
The note with it: 26-week clinical trial; cited from earlier work.
For the compound `Cc1noc(-c2ccc(-c3ccc(C4(C(=O)O)CC4)cc3)cc2)c1NC(=O)O[C@H](C)c1ccccc1` [BMS-986020], the “rate of FVC (forced vital capacity) decline” value is given as “significantly reduce”.

The test system of another test is human foetal lung fibroblasts.
Assay: not given
The note with it: cited from earlier work.
Consider `Cc1noc(-c2ccc(CSCCC(=O)O)cc2)c1NC(=O)OC(C)c1ccccc1Cl` (centres unmarked) [Ki16425], for which the “chemotaxis of human foetal lung fibroblasts induced by BAL from IPF patients” value is “blocked” and the “fibroblast chemotactic activity in bronchoalveolar lavage samples of IPF subjects” value was “inhibited”.

A further test has as its system UUO mice.
Assay: not given
The note with it: compared with LPA1 (-/-) mice; cited from earlier work.
For the compound `Cc1noc(-c2ccc(CSCCC(=O)O)cc2)c1NC(=O)OC(C)c1ccccc1Cl` (centres unmarked) [Ki16425], the “development of renal fibrosis in UUO mice” value is recorded as “closely resembled the profile of LPA1 (−/−) mice”.

In another test the test system is mouse epithelial renal cell line, MCT.
Assay: not given
The note with it: co-treatment with LPA, MCT cells; cited from earlier work.
As to `Cc1noc(-c2ccc(CSCCC(=O)O)cc2)c1NC(=O)OC(C)c1ccccc1Cl` (centres unmarked) [Ki16425], the “LPA induction of CTGF expression” value is “almost completely suppressed”.

For a further test, the system named is pancreatic cancer cell lines.
Assay: not given
The note with it: cited from earlier work.
Take `Cc1noc(-c2ccc(CSCCC(=O)O)cc2)c1NC(=O)OC(C)c1ccccc1Cl` (centres unmarked) [Ki16425]: the “in vitro migration in response to LPA and ascites from pancreatic cancer patients” value is listed as “effectively blocked”.

The same test, now with this note: highly peritoneal metastatic pancreatic cancer cell line; cited from earlier work.
With `Cc1noc(-c2ccc(CSCCC(=O)O)cc2)c1NC(=O)OC(C)c1ccccc1Cl` (centres unmarked) [Ki16425], the “LPA-induced and ascites-induced invasion activity” value is recorded as “blocked”.

Another test concerns nerve-injured mice.
Assay: not given
The note with it: pretreatment; cited from earlier work.
Regarding `C[C@@H](N)[C@H]1CC[C@H](C(=O)Nc2ccncc2)CC1` [Example Y-27632], the allodynia and hyperalgesia result is listed as “completely abolished”.
